Assay results taken from the supplement of paper PMC10307832.

What was measured:
Assay in all cases: relative viability (nuclei count vs DMSO), 5 days (fraction); higher = more cells survive
[1] = compound: N=C1NC(=O)/C(=C/c2ccc(O)cc2)S1 [Mirin] + CC(=O)Nc1cccc(-n2c(=O)n(C3CC3)c(=O)c3c(Nc4ccc(I)cc4F)n(C)c(=O)c(C)c32)c1 [Trametinib] (partner 0.02 µM)
Summary of the method: (§1)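 One day after seeding in 1536-well plates, lung cancer cell lines were dosed by pin tool. Dosing was either single-drug or a fixed anchor-drug dose plus five library-drug doses (not always all listed) in √10 steps. After 5 days, nuclei were stained in one fix-and-stain step and counted on 4× images, and relative viability is the nuclei count of treated wells over that of vehicle wells, given as the median of duplicate plates.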

[2] = compound: N=C1NC(=O)/C(=C/c2ccc(O)cc2)S1 [Mirin] + CC(=O)c1c(C)c2cnc(Nc3ccc(N4CCNCC4)cn3)nc2n(C2CCCC2)c1=O [Palbociclib] (partner 0.5 µM)
Summary of the method: as §1

[3] = compound: N=C1NC(=O)/C(=C/c2ccc(O)cc2)S1 [Mirin] + C[C@@H](Oc1cc(-c2cnn(C3CCNCC3)c2)cnc1N)c1c(Cl)ccc(F)c1Cl [Crizotinib] (partner 1 µM)
Summary of the method: as §1

[4] = compound: CCC1=CN=CN=C1N2CCN(CC2)CC3=NC4=C(N3)C=C(C=C4)C(F)(F)F + CS(=O)(=O)CCNCc1ccc(-c2ccc3ncnc(Nc4ccc(OCc5cccc(F)c5)c(Cl)c4)c3c2)o1 [Lapatinib] (partner 2 µM)
Summary of the method: as §1

Cell Line | relative viability ([1]; first compound 0.25 µM) | relative viability ([1]; first compound 0.7906 µM) | relative viability ([1]; first compound 2.5 µM) | relative viability ([1]; first compound 7.906 µM) | relative viability ([1]; first compound 25 µM) | relative viability ([2]; first compound 0.25 µM) | relative viability ([2]; first compound 0.7906 µM) | relative viability ([2]; first compound 2.5 µM) | relative viability ([2]; first compound 7.906 µM) | relative viability ([2]; first compound 25 µM) | relative viability ([3]; first compound 0.25 µM) | relative viability ([3]; first compound 0.7906 µM) | relative viability ([3]; first compound 2.5 µM) | relative viability ([3]; first compound 7.906 µM) | relative viability ([3]; first compound 25 µM) | relative viability ([4]; first compound 0.04 µM) | relative viability ([4]; first compound 0.1265 µM) | relative viability ([4]; first compound 0.4 µM) | relative viability ([4]; first compound 4 µM) | relative viability ([4]; first compound 1.265 µM)
NCI-H1734 | 0.688 | 0.749 | 0.646 | 0.633 | 0.675 | 0.349 | 0.364 | 0.356 | 0.32 | 0.344 | 0.626 | 0.669 | 0.607 | 0.663 | 0.524 | 1.03 | 1.07 | 1.08 | 1.04 | –
NCI-H1650 | 0.534 | 0.544 | 0.579 | 0.551 | 0.62 | 0.362 | 0.346 | 0.336 | 0.369 | 0.263 | 0.928 | 0.959 | 0.952 | 1.11 | 1.16 | 0.721 | 0.797 | 0.711 | 0.645 | 0.39
NCI-H647 | 0.475 | 0.605 | 0.548 | 0.524 | 0.474 | 0.395 | 0.4 | 0.381 | 0.374 | 0.345 | 1.07 | 1.3 | 1.24 | 1.08 | 0.596 | 1.27 | 1.04 | – | 1.09 | 0.802
NCI-H1944 | 0.35 | 0.397 | 0.387 | 0.387 | 0.32 | 0.315 | 0.325 | 0.328 | 0.287 | 0.226 | 0.971 | – | 1.04 | 1.1 | 0.957 | 0.976 | 0.691 | 0.767 | 0.875 | –
LK-2 | 0.653 | 0.577 | 0.609 | 0.421 | 0.42 | 0.538 | – | 0.774 | 0.463 | 0.188 | 0.241 | – | 0.238 | 0.24 | 0.199 | 0.947 | 0.797 | 0.838 | 0.985 | 0.498
